Assay results as given in paper PMC3325938, “Activity of Clinically Relevant Antimalarial Drugs on Plasmodium falciparum Mature Gametocytes in an ATP Bioluminescence “Transmission Blocking” Assay” (PLoS ONE, 2012).
Values after ≈ are worked out from the molar mass of the structure shown. Like-named read-outs stand apart in the source and are kept apart here.

Tests used:
[1] = system: P. falciparum stage IV–V gametocytes (3D7HT-GFP strain); experiment: microbe, parasite or virus in culture; format: cell-based, Plasmodium falciparum
Protocol: Once purified, gametocytes were counted using a Neubauer chamber. Gametocytes (5×10^4 gametocytes per well) were transferred to a 96-well plate in a final volume of 100 µL, and dilutions of each drug were added (final DMSO concentration 0.5%). Plates were incubated (at 37°C in a 5% CO2 humidified incubator) for 48 h. The ATP level of each well was determined using the BacTiter-Glo™ reagent (Promega) according to manufacturer's recommendations. The BacTiter-Glo™ assay generates a “glow-type” luminescent signal produced by the luciferase reaction, which consists of mono-oxygenation of luciferin catalyzed by luciferase in the presence of Mg2+, ATP, and molecular oxygen.

[2] = system: P. falciparum mature gametocytes; experiment: Microscopic enumeration of gametocytes on Giemsa-stained smears; format: cell-based, Plasmodium falciparum; conditions: read-out: IC50 gametocytes Microscopy examination
Protocol: 100 µl of the culture (day 15, HT 6%) were plated in each well with the appropriate dilution of drug. 48 h after, 10 µl of each well was used to prepare a thin blood film and stain it with Giemsa. The number of gametocytes per 10,000–15,000 RBCs were counted and compared to the control (no drug, 0.5% DMSO).

[3] = system: P. falciparum asexual forms (3D7A); experiment: In vitro antiplasmodial activity on asexual stages (uptake of radiolabeled nucleic acid precursor), 3D7A; format: cell-based, Plasmodium falciparum; conditions: read-out: IC50 Activity against asexual forms (3D7A)
Protocol: (§1) IC50 values were measured as previously reported but all of the tests were done with serum-free cultures (using AlbuMAX II)

[4] = system: P. falciparum asexual forms (3D7HT-GFP); experiment: In vitro antiplasmodial activity on asexual stages (uptake of radiolabeled nucleic acid precursor), 3D7HT-GFP; format: cell-based, Plasmodium falciparum; conditions: read-out: IC50 Activity against asexual forms (3D7HT-GFP)
Protocol: as §1

[5] = Cytotoxicity, resazurin-based reductase assay; format: cell-based, human; conditions: human, HepG2, 48 h exposure, resazurin, mean ± SD, 3–6 independent experiments
Protocol: (§2) Cells were grown and maintained in EMEM (Sigma-Aldrich) supplemented with 2 mM L-glutamine (Sigma-Aldrich) and 10% fetal calf serum (Perbio). […] For cytotoxicity experiments, cells were seeded onto 96-well clear bottom black plates coated with type I collagen (Biocoat, Becton Dickinson) at a cell density of 10000 cells/well.
(§3) The culture medium was as described above, but supplemented with 5% fetal calf serum. Following the 48 h exposure period, a 0.004% resazurin solution was prepared by adding 60 mL of Dulbecco's PBS to each resazurin tablet (VWR International). The tablet was allowed to dissolve by placing the container in a bath maintained at 37°C, protected from light, for approximately 30 minutes. Medium was removed and 200 µL of fresh culture medium and 50 µL of resazurin solution were added to each well. Plates were incubated for a further 1 ½ hours. Cytotoxicity is indicated by decreased reduction of resazurin to its fluorescent product resorufin. The fluorescence was stabilized at room temperature for 15 minutes protected from light. […] Percentages of inhibition were calculated relative to the control wells.

gametocytes [6] = system: gametocytes; design: method as in PMID 21316401; conditions: at 1 µM; cited from earlier work
HepG2 cells = experiment: Cytotoxicity, resazurin-based reductase assay; format: cell-based, human
Protocol: as §2, §3

gametocytes [7] = system: gametocytes; design: method as in PMID 17242150; conditions: cited from earlier work
gametocytes [8] = conditions: cited from earlier work
late gametocytes = system: late gametocytes; design: method as in PMID 20149239; conditions: flow cytometry assay; cited from earlier work
[9] = Plasmodium falciparum, 48 h, read-out: IC50 Activity against mature gametocytes IV–V, ATP bioluminescence, 48 h, 3D7HT-GFP, mean ± SD, 3–6 independent experiments
[10] = Plasmodium falciparum, 48 h, read-out: IC50 gametocytes ATP method, mature gametocytes, 48 h drug exposure (Table 1)
[11] = Plasmodium falciparum, mature gametocytes, 48 h incubation, Giemsa smear counting
[12] = Plasmodium falciparum, mean ± SD, 3–6 independent experiments, serum-free (AlbuMAX II)

In the case of C[C@H]1[C@@H](O)O[C@@H]2O[C@@]3(C)CC[C@H]4[C@H](C)CC[C@@H]1[C@@]24OO3 [Dihydroartemisinin], the IC50 [1, 9] is reported as 3.56 ± 0.95 µM, the IC50 [1, 10] is reported as 3.56 µM and the IC50 [2, 11] is reported as 2.47 µM. The IC50 [3, 12] was 0.0028 ± 0.0007 µM, the IC50 ([4]; Plasmodium falciparum) was 0.013 ± 0.003 µM and the IC50 at 48 h ([5]; HepG2 cells) was > 50 µM. For the same molecule, the inhibition of gametocytes (gametocytes [6]) was 70.4%.
With CCCCN(CCCC)CC(O)c1cc(Cl)cc2c1-c1ccc(Cl)cc1/C2=C/c1ccc(Cl)cc1 (stereo not drawn) [Lumefantrine] the IC50 [1, 9] was > 50 µM, the IC50 [3, 12] was 0.0032 ± 0.00014 µM and the IC50 ([4]; Plasmodium falciparum) was 0.00165 ± 7e-05 µM. The IC50 at 48 h ([5]; HepG2 cells) was > 50 µM.
With CC[C@H](C)[C@H](NC(=O)[C@H]([C@@H](C)CC)N(C)C(C)=O)C(=O)N[C@H](C(=O)N[C@@H](CC(C)C)C(=O)[C@@]1(C)CO1)[C@@H](C)O [Epoxomicin] the IC50 ([1]; ATP bioluminescence, 48 h, 3D7HT-GFP, mean ± SD, 3–6 independent experiments, read-out: IC50 Activity against mature gametocytes IV–V) was 0.00042 ± 0.00011 µM, the IC50 ([1]; mature gametocytes, 48 h drug exposure (Table 1), read-out: IC50 gametocytes ATP method) was 0.00042 µM and the IC50 ([2]; mature gametocytes, 48 h incubation, Giemsa smear counting) was 0.0052 µM. The IC50 [3] was 0.008 ± 0.001 µM, the IC50 ([4]; mean ± SD, 3–6 independent experiments, serum-free (AlbuMAX II)) was 0.0098 ± 0.0017 µM and the IC50 (HepG2 cells; HepG2, 48 h exposure, resazurin, mean ± SD, 3–6 independent experiments) was 0.003 ± 0.0005 µM.
In the case of C[C@@H]1C[C@@H]([C@H](O)CC2CC(=O)NC(=O)C2)C(=O)[C@@H](C)C1 [Cycloheximide], the IC50 ([1]; Plasmodium falciparum, 48 h, read-out: IC50 Activity against mature gametocytes IV–V) is reported as 6.23 ± 2.46 µM, the IC50 ([3]; Plasmodium falciparum) is reported as 0.198 ± 0.0017 µM and the IC50 ([4]; Plasmodium falciparum) is reported as 0.194 ± 0.0077 µM. It also gave an IC50 at 48 h [5] of 2.95 ± 0.35 µM.
With CC[C@H]1OC(=O)[C@H](C)[C@@H](O[C@H]2C[C@@](C)(OC)[C@@H](O)[C@H](C)O2)[C@H](C)[C@@H](O[C@@H]2O[C@H](C)C[C@H](N(C)C)[C@H]2O)[C@](C)(O)C[C@@H](C)CN(C)[C@H](C)[C@@H](O)[C@]1(C)O [Azythromycin] the IC50 [1, 9] was 28.4 ± 0.64 µM, the IC50 ([3]; Plasmodium falciparum) was > 10 µM and the IC50 ([4]; Plasmodium falciparum) was > 10 µM. For the same molecule, the IC50 at 48 h ([5]; HepG2 cells) was > 50 µM.
Work on CCN(CC)CCCC(C)Nc1ccnc2cc(Cl)ccc12 (stereo not drawn) [Chloroquine] yielded an IC50 [1, 9] of 23.5 ± 2.66 µM, an IC50 [1, 10] of 23.5 µM and an IC50 ([2]; Plasmodium falciparum, 48 h) of 28.4 µM. It also gave an IC50 ([3]; Plasmodium falciparum) of 0.006 ± 0.0002 µM and an IC50 ([4]; Plasmodium falciparum) of 0.007 ± 0.002 µM.
C[C@H]1[C@H](OC(=O)CCC(=O)O)O[C@@H]2O[C@@]3(C)CC[C@H]4[C@H](C)CC[C@@H]1[C@@]24OO3 [Artesunate] gave an IC50 [1, 9] of 10.8 ± 3.7 µM, an IC50 [1, 10] of 10.8 µM and an IC50 [2, 11] of 2.26 µM. For the same molecule, the IC50 [3, 12] was 0.037 ± 0.025 µM, the IC50 ([4]; Plasmodium falciparum) was 0.054 ± 0.03 µM and the IC50 at 48 h ([5]; HepG2 cells) was > 50 µM. For the same molecule, the IC50 (gametocytes [7]) was 0.108 µM and the IC50 on gametocytes (gametocytes [8]) was 0.1 ng/mL (≈ 0.26 nM).
With C=C[C@H]1C[N@@]2CC[C@H]1C[C@H]2[C@H](O)c1ccnc2ccc(OC)cc12 [Quinine] the IC50 [3, 12] was 0.066 ± 0.018 µM, the IC50 ([4]; Plasmodium falciparum) was 0.106 ± 0.04 µM and the IC50 at 48 h ([5]; HepG2 cells) was > 50 µM.
Work on O=C1C(O)=C([C@H]2CC[C@H](c3ccc(Cl)cc3)CC2)C(=O)c2ccccc21 [Atovaquone] yielded an IC50 [1, 9] of 16.1 ± 2.12 µM, an IC50 [3, 12] of 0.0007 ± 0.0004 µM and an IC50 ([4]; Plasmodium falciparum) of 0.0018 ± 0.0002 µM. The IC50 at 48 h ([5]; HepG2 cells) was > 40 µM and the “cytotoxic effects (in words)” value (HepG2 cells; at the maximum solubility in culture media) was “No cytotoxic effects were detected”.
Work on OC(c1cc(C(F)(F)F)nc2c(C(F)(F)F)cccc12)C1CCCCN1 (stereo not drawn) [Mefloquine] yielded an IC50 [1, 9] of 4.9 µM, an IC50 ([1]; read-out: IC50 Activity against mature gametocytes IV–V, ATP bioluminescence, 48 h, 3D7HT-GFP, mean ± SD, 3–6 independent experiments) of 4.7 ± 2.1 µM and an IC50 [3, 12] of 0.026 ± 0.017 µM. The IC50 ([4]; Plasmodium falciparum) was 0.028 ± 0.0014 µM, the IC50 at 48 h ([5]; HepG2 cells) was 11 ± 0.26 µM and the “selectivity ratio (IC50 in HepG2 cells / IC50 in P. falciparum gametocytes)” value (HepG2 cells; HepG2 versus mature gametocytes) was 2.34.
For CCc1nc(N)nc(N)c1-c1ccc(Cl)cc1 [Pyrimethamine], the “effect on mature gametocytes (in words)” value ([1]; 3D7HT-GFP line resistant to drugs acting on DHFR) was “did not have any effect”, the IC50 [1, 9] was > 50 µM and the IC50 ([4]; Plasmodium falciparum) was 33.7 ± 6.72 µM. For the same molecule, the IC50 at 48 h ([5]; HepG2 cells) was > 50 µM.
Molecule CN(C)c1ccc2nc3ccc(=[N+](C)C)cc-3sc2c1 [Methylene blue] has an IC50 [1, 9] of 0.49 ± 0.16 µM, an IC50 [1, 10] of 0.49 µM and an IC50 [2, 11] of 0.76 µM. The IC50 [3, 12] was 0.011 ± 0.008 µM, the IC50 ([4]; Plasmodium falciparum) was 0.01 ± 0.0018 µM and the IC50 at 48 h ([5]; HepG2 cells) was 6.52 ± 1.31 µM.
CCN(CC)Cc1ccc(Nc2ccnc3cc(Cl)ccc23)cc1O [Isoquine] showed an IC50 [1, 9] of 28.5 ± 2.12 µM, an IC50 [3, 12] of 0.009 ± 0.0016 µM and an IC50 ([4]; Plasmodium falciparum) of 0.0044 ± 0.0032 µM. For the same molecule, the IC50 at 48 h ([5]; HepG2 cells) was 17.1 ± 6.3 µM.
In the case of COc1cc(NC(C)CCCN)c2ncccc2c1 (stereo not drawn) [Primaquine], the IC50 [1, 9] is reported as 20.9 ± 4.65 µM, the IC50 [1, 10] is reported as 20.9 µM and the IC50 [2, 11] is reported as 87.9 µM. For the same molecule, the IC50 [3, 12] was > 10 µM, the IC50 ([4]; Plasmodium falciparum) was > 10 µM and the IC50 at 48 h [5] was > 50 µM.
Work on CCCCN(CCCC)CCC(O)c1cc2c(Cl)cc(Cl)cc2c2cc(C(F)(F)F)ccc12 (stereo not drawn) [Halofantrine] yielded an IC50 [1, 9] of 6.7 ± 0.42 µM, an IC50 [3, 12] of 0.0011 ± 0.0005 µM and an IC50 ([4]; Plasmodium falciparum) of 0.0012 ± 0.0005 µM. For the same molecule, the IC50 at 48 h ([5]; HepG2 cells) was > 50 µM.
COc1ccc2nc3cc(Cl)ccc3c(Nc3cc(CN4CCCC4)c(O)c(CN4CCCC4)c3)c2n1 [Pyronaridine] gave an IC50 [1, 9] of ~3.25 µM, an IC50 [3, 12] of 0.0045 ± 0.0015 µM and an IC50 ([4]; Plasmodium falciparum) of 0.0008 ± 0.0001 µM. It also gave an IC50 at 48 h ([5]; HepG2 cells) of 5.95 ± 0.92 µM.
In the case of C[C@@H]1CC[C@H]2[C@@H](C)C(=O)O[C@@H]3O[C@@]4(C)CC[C@@H]1[C@]32OO4 [artemisinin], the IC50 (late gametocytes) is given as 1 µM.
